Read-outs that look alike come from different tables or passages of the source.
Assays:
Experiment in all cases: radiometric enzymatic assay
Assay type in all cases: biochemical
CK1γ1 [1] = molecular target: T1, CK1γ1 (Homo sapiens, UniProt Q9HCP0); details: read-out: Enzymatic IC50 CK1γ1
CK1γ2 [2] = molecular target: T2, CK1γ2 (Homo sapiens, UniProt P78368); details: read-out: Enzymatic IC50 CK1γ2
CK1γ1 [3] = molecular target: T1, CK1γ1; details: read-out: Enzymatic IC50 CK1γ1; remark: listed apart in the source
CK1γ2 [4] = molecular target: T2, CK1γ2; details: read-out: Enzymatic IC50 CK1γ2; remark: listed apart in the source
CK1γ1 [5] = molecular target: T1, CK1γ1; details: read-out: NB IC50 CK1γ3
CK1γ2 [6] = molecular target: T2, CK1γ2; details: read-out: Enzymatic IC50 CK1γ2; remark: listed apart in the source
CK1γ1 [7] = molecular target: T1, CK1γ1; details: read-out: Enzymatic IC50 CK1γ1; remark: listed apart in the source
CK1γ2 [8] = molecular target: T2, CK1γ2; details: read-out: Enzymatic IC50 CK1γ2; remark: listed apart in the source

T1 sequence (Q9HCP0 whole entry): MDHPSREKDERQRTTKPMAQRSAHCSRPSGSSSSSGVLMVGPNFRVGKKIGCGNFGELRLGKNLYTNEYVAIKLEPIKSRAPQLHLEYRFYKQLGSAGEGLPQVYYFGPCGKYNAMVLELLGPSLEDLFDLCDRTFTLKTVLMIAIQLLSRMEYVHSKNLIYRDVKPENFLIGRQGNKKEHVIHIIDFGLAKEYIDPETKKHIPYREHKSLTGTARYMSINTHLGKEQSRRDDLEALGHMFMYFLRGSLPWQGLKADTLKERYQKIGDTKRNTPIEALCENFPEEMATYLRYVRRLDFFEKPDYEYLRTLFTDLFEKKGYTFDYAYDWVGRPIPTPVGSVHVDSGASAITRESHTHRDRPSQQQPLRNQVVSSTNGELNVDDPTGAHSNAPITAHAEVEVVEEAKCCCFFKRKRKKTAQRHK
T2 sequence (P78368 whole entry): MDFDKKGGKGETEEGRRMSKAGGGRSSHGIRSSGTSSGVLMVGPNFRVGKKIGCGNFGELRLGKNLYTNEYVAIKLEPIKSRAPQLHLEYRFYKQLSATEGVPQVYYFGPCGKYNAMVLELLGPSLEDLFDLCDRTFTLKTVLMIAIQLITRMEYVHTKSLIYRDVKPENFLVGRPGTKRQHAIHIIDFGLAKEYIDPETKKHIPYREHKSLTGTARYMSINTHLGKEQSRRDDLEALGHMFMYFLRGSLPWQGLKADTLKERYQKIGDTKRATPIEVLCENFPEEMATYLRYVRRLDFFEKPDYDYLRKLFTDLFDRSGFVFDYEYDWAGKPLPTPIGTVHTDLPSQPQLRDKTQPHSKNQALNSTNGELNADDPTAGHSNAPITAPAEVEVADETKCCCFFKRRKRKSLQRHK

N#Cc1ccc2nc(Nc3ccc(N4CCOCC4)c(Cl)c3)[nH]c2c1 [compound 14, 2-((3-chloro-4-morpholinophenyl)amino)-1H-benzo[d]imidazole-6-carbonitrile]
IC50 (CK1γ1 [1]): 28 nM
IC50 (CK1γ2 [2]): 7 nM

N#Cc1ccc2nc(Nc3ccc(N4CCOCC4)c(Br)c3)[nH]c2c1 [compound 15, 2-((3-bromo-4-morpholinophenyl)amino)-1H-benzo[d]imidazole-6-carbonitrile]
IC50 (CK1γ1 [3]): 40 nM
IC50 (CK1γ2 [4]): 10 nM

N#Cc1ccc2[nH]c(Nc3ccc(N4CCCCC4)c(Cl)c3)nc2c1 [compound 20, 2-((3-chloro-4-(piperidin-1-yl)phenyl)amino)-1H-benzo[d]imidazole-5-carbonitrile]
IC50 (CK1γ1 [5]): 30 nM
IC50 (CK1γ2 [6]): 9 nM

CN1CCN(c2ccc(Nc3nc4ccc(C#N)cc4[nH]3)cc2Cl)CC1 [compound 21, 2-((3-chloro-4-(4-methylpiperazin-1-yl)phenyl)amino)-1H-benzo[d]imidazole-6-carbonitrile]
IC50 (CK1γ1 [7]): 36 nM
IC50 (CK1γ2 [8]): 14 nM
